Test system: Phospholipidosis
Assay: Literature-mined public compounds from Kruhlak et al phospholipidosis modelling dataset

In the case of `CC[C@]1(O)CC[C@H]2[C@@H]3CCC4=CCCC[C@@H]4[C@H]3CC[C@@]21C`, the Phospholipidosis was “Negative: based on the absence of positive reported data from WMDD”.

With `CC(=O)O.C[C@H]1C[C@@H]2[C@H]([C@@H](O)C[C@@]3(C)[C@H]2CC[C@]3(O)C(=O)CO)[C@@]2(C)C=CC(=O)C=C12` the Phospholipidosis was “Negative: based on the absence of positive reported data from WMDD”.

For `CC[C@@H](C(N)=O)N1CCCC1=O`, the Phospholipidosis was “Negative: based on the absence of positive reported data from WMDD”.

With `COc1ccc(CC2c3cc(OC)c(OC)cc3CC[N+]2(C)CCC(=O)OCCCCCOC(=O)CC[N+]2(C)CCc3cc(OC)c(OC)cc3C2Cc2ccc(OC)c(OC)c2)cc1OC` (stereo not given) the Phospholipidosis was “Negative: based on the absence of positive reported data from WMDD”.

In the case of `CN(C)CCN(Cc1cccs1)c1ccccn1`, the Phospholipidosis was “Negative: confirmed by electron microscopy”.

In the case of `CN1CCN(Cc2nc3cccc4c3c([n+]2[O-])-c2ccccc2-4)CC1`, the Phospholipidosis was “Positive: weak inducer based on presence of foamy macrophages and cytoplasmic vacuolations”.

For `CN(C)CCC=C1c2ccccc2CCc2c(Cl)cccc21`, the Phospholipidosis was “Positive: strong inducer confirmed by electron microscopy”.

With `CN(C)CCC=C1c2ccccc2C=Cc2c(Cl)cccc21` the Phospholipidosis was “Positive: strong inducer confirmed by electron microscopy”.

`CCN(CC)CCn1nc2c3c(c(C)ccc31)Sc1cc(Cl)ccc1-2` was tested, and the Phospholipidosis was “Positive: strong inducer confirmed by electron microscopy”.

With `CCN(CC)Cc1cc(Nc2ccnc3cc(Cl)ccc23)ccc1O.Cl` the Phospholipidosis was “Positive: weak inducer based on presence of foamy macrophages and cytoplasmic vacuolations”.

For `CC1(C)OCC(C(CS(=O)(=O)c2ccc(Oc3cccc(OC(F)(F)F)c3)cc2)NC=O)O1` (stereo not given), the Phospholipidosis was “Negative: confirmed by electron microscopy”.

In the case of `CC1(C)C(=O)NC(=O)N1CC(COc1ccc(-c2ccc(OC(F)(F)F)cc2)cc1)NC=O` (stereo not given), the Phospholipidosis was “Negative: confirmed by electron microscopy”.

For `CC1(C)C(=O)NC(=O)N1CC(N)COc1ccc(-c2ccc(OC(F)(F)F)cc2)cc1` (stereo not given), the Phospholipidosis was “Positive: weak inducer based on presence of foamy macrophages and cytoplasmic vacuolations”.

`CCCN[C@@H]1[C@H](C)[C@@H](O)[C@](C)(O)[C@@H](CC)OC(=O)[C@H](C)[C@@H](O[C@H]2C[C@@](C)(OC)[C@@H](O)[C@H](C)O2)[C@H](C)[C@@H](O[C@@H]2O[C@H](C)C[C@H](N(C)C)[C@H]2O)[C@](C)(O)C[C@H]1C` was tested, and the Phospholipidosis was “Positive: weak inducer based on presence of foamy macrophages and cytoplasmic vacuolations”.

For `CCCNCCc1ccc(NS(=O)(=O)c2ccc(OC(F)(F)F)cc2)cc1`, the Phospholipidosis was “Positive: strong inducer confirmed by electron microscopy”.

In the case of `CCC(c1ccc2cc(OC)ccc2c1)C(C)(C)C(=O)O` (stereo not given), the Phospholipidosis was “Negative: based on the absence of positive reported data from WMDD”.

In the case of `NC[C@H]1Cc2ccc(F)cc2[C@@H](c2ccccc2)O1`, the Phospholipidosis was “Positive: strong inducer confirmed by electron microscopy”.

With `Clc1ccccc1CNC[C@H]1CC[C@H](CNCc2ccccc2Cl)CC1` the Phospholipidosis was “Positive: strong inducer confirmed by electron microscopy”.

`CC1(C)OC[C@H]([C@@H](CS(=O)(=O)c2ccc(Oc3ccc(OC(F)(F)F)cc3)cc2)N(O)C=O)O1` was tested, and the Phospholipidosis was “Negative: confirmed by electron microscopy”.

`NCCc1cc(O)c(O)c(O)c1` was tested, and the Phospholipidosis was “Positive: strong inducer confirmed by electron microscopy”.

`CCC[C@@H](NC(=O)N1C(=O)C(CC)(CC)[C@@H]1Oc1ccc(C(=O)N2CCN(C)CC2)cc1)c1ccc2c(c1)OCO2` was tested, and the Phospholipidosis was “Positive: weak inducer based on presence of foamy macrophages and cytoplasmic vacuolations”.

`O=P(O)(O)OCC(O)CO` (stereo not given) was tested, and the Phospholipidosis was “Negative: based on the absence of positive reported data from WMDD”.

For `CC1(C)NC(=O)N(C[C@@H](COc2ccc(-c3ccc(OC(F)(F)F)cc3)cc2)N(O)C=O)C1=O`, the Phospholipidosis was “Negative: confirmed by electron microscopy”.

For `C[n+]1ccc(-c2cc[n+](C)cc2)cc1`, the Phospholipidosis was “Positive: strong inducer confirmed by electron microscopy”.

In the case of `N[C@@H](Cc1ccc(N(CCCl)CCCl)cc1)C(=O)O`, the Phospholipidosis was “Negative: based on the absence of positive reported data from WMDD”.
